Reference: the NIST ThermoML archive (doi:10.1016/j.jct.2014.01.012)

Assay: xn = mol fraction of the nth substance listed
Settings: 101 kPa, Liquid; for speed of sound: Sing-around technique in a fixed-path interferometer; for mass density: Vibrating tube method

CCCCCCn1cc[n+](C)c1.F[P-](F)(F)(F)(F)F [1-hexyl-3-methylimidazolium hexafluorophosphate] + CCCCOC(C)=O
Settings	mass density [kg/m3]	speed of sound [m/s]
293.15 K, x1 = 0.0956	951.75	1232
293.15 K, x1 = 0.1919	1012.58	1254.6
293.15 K, x1 = 0.273	1056.82	1279.1
293.15 K, x1 = 0.3698	1103.12	1306.9
293.15 K, x1 = 0.4639	1141.87	1329.4
293.15 K, x1 = 0.5701	1179.57	1354.2
293.15 K, x1 = 0.6787	1213.07	1375.9
293.15 K, x1 = 0.7746	1239.19	1395
293.15 K, x1 = 0.8707	1262.73	1412
293.15 K, x1 = 0.9354	1277.66	1425
293.15 K, x1 = 1	1291.38	1436.9
298.15 K, x1 = 0.0956	947.32	1211.1
298.15 K, x1 = 0.1919	1008.36	1234
298.15 K, x1 = 0.273	1052.6	1258.9
298.15 K, x1 = 0.3698	1098.76	1286.7
298.15 K, x1 = 0.4639	1137.51	1309.5
298.15 K, x1 = 0.5701	1175.41	1334.8
298.15 K, x1 = 0.6787	1209.24	1357.2
298.15 K, x1 = 0.7746	1235.56	1377.6
298.15 K, x1 = 0.8707	1259.27	1395.9
298.15 K, x1 = 0.9354	1273.93	1409.2
298.15 K, x1 = 1	1287.34	1423.5
303.15 K, x1 = 0.0956	942.923	1190.1
303.15 K, x1 = 0.1919	1004.08	1212.6
303.15 K, x1 = 0.273	1048.36	1237.4
303.15 K, x1 = 0.3698	1094.3	1265.2
303.15 K, x1 = 0.4639	1133.2	1289.9
303.15 K, x1 = 0.5701	1171.25	1317.5
303.15 K, x1 = 0.6787	1205.24	1342.6
303.15 K, x1 = 0.7746	1231.69	1360.1
303.15 K, x1 = 0.8707	1255.4	1382.6
303.15 K, x1 = 0.9354	1270.13	1397.1
303.15 K, x1 = 1	1283.29	1410.6
308.15 K, x1 = 0.0956	938.4	1170.2
308.15 K, x1 = 0.1919	999.626	1195.2
308.15 K, x1 = 0.273	1043.86	1223.8
308.15 K, x1 = 0.3698	1089.96	1252.4
308.15 K, x1 = 0.4639	1128.94	1282.6
308.15 K, x1 = 0.5701	1167.43	1309.4
308.15 K, x1 = 0.6787	1201.36	1335.2
308.15 K, x1 = 0.7746	1227.89	1354.9
308.15 K, x1 = 0.8707	1251.38	1369.7
308.15 K, x1 = 0.9354	1265.98	1384.4
308.15 K, x1 = 1	1279.4	1398.2
313.15 K, x1 = 0.0956	933.877	1150.1
313.15 K, x1 = 0.1919	995.525	1177
313.15 K, x1 = 0.273	1039.84	1206.8
313.15 K, x1 = 0.3698	1085.95	1236.5
313.15 K, x1 = 0.4639	1124.72	1267.5
313.15 K, x1 = 0.5701	1163.39	1295.4
313.15 K, x1 = 0.6787	1197.76	1321.8
313.15 K, x1 = 0.7746	1224.59	1341.9
313.15 K, x1 = 0.8707	1248.25	1356.9
313.15 K, x1 = 0.9354	1262.68	1372
313.15 K, x1 = 1	1275.48	1386
318.15 K, x1 = 0.0956	929.385	1130.3
318.15 K, x1 = 0.1919	991.164	1158.8
318.15 K, x1 = 0.273	1035.44	1189.8
318.15 K, x1 = 0.3698	1081.67	1220.7
318.15 K, x1 = 0.4639	1120.61	1252.5
318.15 K, x1 = 0.5701	1159.18	1280.7
318.15 K, x1 = 0.6787	1193.95	1308.5
318.15 K, x1 = 0.7746	1221	1329
318.15 K, x1 = 0.8707	1244.79	1344.4
318.15 K, x1 = 0.9354	1258.89	1359.8
318.15 K, x1 = 1	1271.56	1374.2
323.15 K, x1 = 0.0956	924.824	1110.4
323.15 K, x1 = 0.1919	986.823	1140.8
323.15 K, x1 = 0.273	1031.16	1172.9
323.15 K, x1 = 0.3698	1077.6	1205.1
323.15 K, x1 = 0.4639	1116.43	1237.1
323.15 K, x1 = 0.5701	1155.28	1267
323.15 K, x1 = 0.6787	1190.27	1295.7
323.15 K, x1 = 0.7746	1217.39	1316.4
323.15 K, x1 = 0.8707	1241.1	1332.1
323.15 K, x1 = 0.9354	1255.1	1347.8
323.15 K, x1 = 1	1267.63	1362.5
